From PMC6364417, “Kinase inhibitor library screening identifies synergistic drug combinations effective in sensitive and resistant melanoma cells” (Journal of Experimental & Clinical Cancer Research : CR, 2019)
Read-outs that look alike come from different tables or passages of the source. One block for each compound: values may come before it.

What was measured:
[1] = system: A375-XP cells (Vemurafenib-resistant); assay: Dose-response curves and IC50, PrestoBlue cell viability, 72 h; type: cell-based, human; conditions: n.e. = did not suppress growth below 50% in the tested concentration range, read-out: Half-maximal inhibitory concentration value (IC50), Mean
[2] = system: 501Mel-XP cells (Vemurafenib-resistant); assay: as above; conditions: read-out: Half-maximal inhibitory concentration (IC50)
Description: (§1) All inhibitors used in this study were purchased from Selleck Chemicals (Houston, USA). They were dissolved in DMSO to a stock concentration of 10 mM according to the manufacturer’s instructions and stored at − 80 °C. […] Cell viability was measured with the PrestoBlue Cell Viability Reagent (ThermoFisher Scientific) on a CLARIOstar Monochromator microplate reader (BMG Labtech). Using the GraphPad Prism v5.04 software, the half-maximal inhibitor concentration values (IC50) were determined from the curve using the nonlinear log (inhibitor) vs response-variable slope (four parameters) equation. […] The IC50’s were determined for 3 biological replicates and are listed with their standard deviations.
(§2) Values represent the mean of at least three biological replicates; one representative curve of at least 3 biological replicates is depicted. _XP: cells resistant to Vemurafenib (red), _GP: cells resistant to Dabrafenib (green).

[3] = system: IGR37-GP cells (Dabrafenib-resistant); assay: as above; conditions: read-out: Half-maximal inhibitory concentration (IC50)
[4] = system: A375-GP cells (Dabrafenib-resistant); assay: as above; type: cell-based, human; conditions: n.e. = did not suppress growth below 50% in the tested concentration range, read-out: Half-maximal inhibitory concentration value (IC50), Mean
A375 cells (parental) [5] = assay: as above; type: cell-based, human; conditions: read-out: Half-maximal inhibitory concentration value (IC50), Mean
[6] = system: IGR37-XP cells (Vemurafenib-resistant); assay: as above; conditions: read-out: Half-maximal inhibitory concentration (IC50)
Description: as §1, §2

501Mel cells (parental) [7] = assay: as above; conditions: read-out: Half-maximal inhibitory concentration (IC50)
Description: as §1, §2

[8] = system: 501Mel-GP cells (Dabrafenib-resistant); assay: as above; conditions: read-out: Half-maximal inhibitory concentration (IC50)
Description: as §1

IGR37 cells (parental) [9] = assay: as above; conditions: read-out: Half-maximal inhibitory concentration (IC50)
Description: as §1, §2

[10] = system: IGR37-XP cells (Vemurafenib-resistant); assay: Kinase inhibitor library screening, PrestoBlue cell viability, 1 or 10 μM, 72 h; conditions: IGR37 XP
A375 cells (parental) [11] = assay: as above; conditions: A375 Parental
IGR37 cells (parental) [12] = assay: as above; conditions: IGR37 Parental
[13] = system: IGR37-GP cells (Dabrafenib-resistant); assay: as above; conditions: IGR37 GP
[14] = system: A375-GP cells (Dabrafenib-resistant); assay: as above; conditions: A375 GP
[15] = system: 501Mel-XP cells (Vemurafenib-resistant); assay: as above; conditions: 501Mel XP
501Mel cells (parental) [16] = assay: as above; conditions: 501Mel Parental
Summary of the method: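 Sensitive parental cells and their resistant derivatives were exposed to library compounds for 72 h. Values represent viability as a percentage of untreated cells.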

[17] = system: A375-XP cells (Vemurafenib-resistant); assay: as above; conditions: A375 XP
[18] = system: 501Mel-GP cells (Dabrafenib-resistant); assay: as above; conditions: 501Mel GP
A375 cells = assay: Synergy determination with the Chou-Talalay method (CompuSyn), cell viability 72 h; type: cell-based, human; conditions: 72 h cell viability, Chou-Talalay / Synergyfinder
Description: The Chou-Talalay method to determine possible synergistic effects of selected kinase inhibitor combinations was used as described in [19]. […] Cells were treated with either single inhibitors or combinations thereof at indicated amounts in technical triplicates. The amounts were pre-determined from each inhibitor’s IC50 value and inhibitors were assayed in a defined dilution series and at constant ratio when combined. […] Combination Index (CI) values showing either synergy (< 1) or antagonism (> 1) were calculated with the CompuSyn software (ComboSyn, Inc).

[19] = n.e. = did not suppress growth below 50% in the tested concentration range

IC50 [1]: 1000 nM
IC50 [4]: 788 nM
Compound: Nc1cc(C(F)(F)F)c(-c2cc(N3CCOCC3)nc(N3CCOCC3)n2)cn1 [BKM120]
IC50 ([2]; 501Mel-XP (Vemurafenib-resistant), 72 h cell viability): 818 nM
IC50 ([3]; IGR37-GP (Dabrafenib-resistant), 72 h cell viability): 1520 nM
IC50 (A375 cells (parental) [5]; [19]): 951 nM
IC50 ([6]; IGR37-XP (Vemurafenib-resistant), 72 h cell viability): 1160 nM
IC50 (501Mel cells (parental) [7]; 501Mel parental, 72 h cell viability): 1160 nM
IC50 ([8]; 501Mel-GP (Dabrafenib-resistant), 72 h cell viability): 919 nM
IC50 (IGR37 cells (parental) [9]; IGR37 parental, 72 h cell viability): 916 nM

IC50 ([1]; Homo sapiens): 5140 nM
IC50 ([4]; Homo sapiens): 5100 nM
Compound: C[C@@H](Oc1cc(-c2cnn(C3CCNCC3)c2)cnc1N)c1c(Cl)ccc(F)c1Cl [Crizotinib]
IC50 ([2]; Homo sapiens, 72 h): 1350 nM
IC50 ([3]; Homo sapiens, 72 h): 6740 nM
IC50 (A375 cells (parental) [5]; Homo sapiens, A-375, n.e. = did not suppress growth below 50% in the tested concentration range): 5550 nM
IC50 ([6]; Homo sapiens, 72 h): 5940 nM
IC50 (501Mel cells (parental) [7]; Homo sapiens, 72 h): 6520 nM
IC50 ([8]; Homo sapiens, 72 h): 3280 nM
IC50 (IGR37 cells (parental) [9]; Homo sapiens, IGR-37, 72 h): 6890 nM

IC50 [1]: 46 nM
IC50 [4]: 37 nM
Compound: O=C(Cc1ccc(-c2ccc(OCCN3CCOCC3)cc2)cn1)NCc1ccccc1 [KX2-391, reference compound]
synergistic effects with the BRAF inhibitors Vemurafenib and/or Dabrafenib (in words) (A375 cells): did not act synergistically
cell viability (kinase inhibitor library screening) ([10]; 1μΜ, in %): 45.0
cell viability (kinase inhibitor library screening) ([10]; 10μΜ, in %): 36.6
cell viability (kinase inhibitor library screening) (A375 cells (parental) [11]; 1μΜ, in %): 20.3
cell viability (kinase inhibitor library screening) (A375 cells (parental) [11]; 10μΜ, in %): 16.5
cell viability (kinase inhibitor library screening) (IGR37 cells (parental) [12]; 1μΜ, in %): 11.7
cell viability (kinase inhibitor library screening) (IGR37 cells (parental) [12]; 10μΜ, in %): 19.5
cell viability (kinase inhibitor library screening) ([13]; 1μΜ, in %): 70.8
cell viability (kinase inhibitor library screening) ([13]; 10μΜ, in %): 68.8
cell viability (kinase inhibitor library screening) ([14]; 1μΜ, in %): 22.8
cell viability (kinase inhibitor library screening) ([14]; 10μΜ, in %): 19.7
cell viability (kinase inhibitor library screening) ([15]; 1μΜ, in %): 9.9
cell viability (kinase inhibitor library screening) ([15]; 10μΜ, in %): 14.1
cell viability (kinase inhibitor library screening) (501Mel cells (parental) [16]; 1μΜ, in %): 16.9
cell viability (kinase inhibitor library screening) (501Mel cells (parental) [16]; 10μΜ, in %): 24.4
cell viability (kinase inhibitor library screening) ([17]; 1μΜ, in %): 21.2
cell viability (kinase inhibitor library screening) ([18]; 1μΜ, in %): 15.9
cell viability (kinase inhibitor library screening) ([18]; 10μΜ, in %): 19.8
IC50 (A375 cells (parental) [5]; [19]): 42 nM

Continued, compound first:

Compound: CCc1cnn2c(NCc3ccc[n+]([O-])c3)cc(N3CCCC[C@H]3CCO)nc12 [Dinaciclib]
IC50 ([2]; Homo sapiens, 72 h): 11 nM
IC50 ([3]; Homo sapiens, 72 h): 13.6 nM
IC50 ([6]; Homo sapiens, 72 h): 10.2 nM
IC50 (501Mel cells (parental) [7]; Homo sapiens, 72 h): 12 nM
IC50 ([8]; Homo sapiens, 72 h): 11 nM
IC50 (IGR37 cells (parental) [9]; Homo sapiens, IGR-37, 72 h): 8.2 nM

Compound: CCS(=O)(=O)Nc1ccc2c(c1)/C(=C(/Nc1ccc(CN3CCCCC3)cc1)c1ccccc1)C(=O)N2 [Hesperadin, reference compound]
IC50 ([3]; Homo sapiens, 72 h): 1040 nM
cell viability (kinase inhibitor library screening) ([10]; 1μΜ, 72 h): 35.1%
cell viability (kinase inhibitor library screening) ([10]; 10μΜ, 72 h): 2.0%
cell viability (kinase inhibitor library screening) (A375 cells (parental) [11]; 10μΜ, 72 h): 1.9%
cell viability (kinase inhibitor library screening) (A375 cells (parental) [11]; 1μΜ, 72 h): 7.5%
cell viability (kinase inhibitor library screening) (IGR37 cells (parental) [12]; 1μΜ, 72 h): 56.8%
cell viability (kinase inhibitor library screening) (IGR37 cells (parental) [12]; 10μΜ, 72 h): 48.6%
cell viability (kinase inhibitor library screening) ([13]; 1μΜ, 72 h): 52.6%
cell viability (kinase inhibitor library screening) ([13]; 10μΜ, 72 h): 12.7%
cell viability (kinase inhibitor library screening) ([14]; 1μΜ, 72 h): 13.0%
cell viability (kinase inhibitor library screening) ([14]; 10μΜ, 72 h): 9.9%
cell viability (kinase inhibitor library screening) ([15]; 1μΜ, 72 h): 70.7%
cell viability (kinase inhibitor library screening) ([15]; 10μΜ, 72 h): 3.6%
cell viability (kinase inhibitor library screening) (501Mel cells (parental) [16]; 1μΜ, 72 h): 45.1%
cell viability (kinase inhibitor library screening) (501Mel cells (parental) [16]; 10μΜ, 72 h): 33.5%
cell viability (kinase inhibitor library screening) ([17]; 1μΜ, 72 h): 13.3%
cell viability (kinase inhibitor library screening) ([17]; 10μΜ, 72 h): 3.7%
cell viability (kinase inhibitor library screening) ([18]; 1μΜ, 72 h): 81.7%
cell viability (kinase inhibitor library screening) ([18]; 10μΜ, 72 h): 46.9%
IC50 ([6]; Homo sapiens, 72 h): 770 nM
IC50 (IGR37 cells (parental) [9]; Homo sapiens, IGR-37, 72 h): 339 nM
